In patent publication US5795907A, “Gastin and CCK receptor ligands” (James Black Foundation Limited, priority 1994, dated 1998):
One block for each molecule: values may come before it.

Assays:
CCKA = molecular target: T1, CCKA (Cavia porcellus, UniProt Q63931); assay: CCKA radioligand binding assay in guinea-pig pancreas membranes ([125I]-CCK8(S)); conditions: PD134,308 present, 150 minutes at 21±3°; for Ki: read-out: CCKA pKi (converted)
T1 construct: The pancreatata were homogenised in 40 ml ice-cold HEPES buffer using a polytron; from tissue; host or cells: pancreas membranes of male Dunkin Hartley guinea-pigs
T1 sequence (Q63931 1-430): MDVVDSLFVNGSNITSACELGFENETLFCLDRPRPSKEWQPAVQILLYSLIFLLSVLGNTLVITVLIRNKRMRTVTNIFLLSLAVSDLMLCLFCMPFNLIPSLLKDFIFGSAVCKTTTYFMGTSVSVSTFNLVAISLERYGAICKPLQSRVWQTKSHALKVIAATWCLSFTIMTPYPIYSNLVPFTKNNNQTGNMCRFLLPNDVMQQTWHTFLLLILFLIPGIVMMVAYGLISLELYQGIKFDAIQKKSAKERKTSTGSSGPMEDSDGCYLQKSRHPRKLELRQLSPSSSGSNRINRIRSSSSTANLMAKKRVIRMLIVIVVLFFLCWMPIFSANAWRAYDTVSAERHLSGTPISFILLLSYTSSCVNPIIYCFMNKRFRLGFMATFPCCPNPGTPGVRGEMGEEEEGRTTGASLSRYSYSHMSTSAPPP
Outline: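 Competition for [125I]-CCK8(S) (added as […] solution) ran for 150 min at 21±3° in HEPES pH 7.2. Membranes came from male guinea-pig pancreas at 1 mg/ml original wet weight, with 0.375 μM PD134,308 in the suspension. Filter-bound counts were gamma-counted; 100 nM L-364,718 (added solution) defined non-specific binding.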

CCKB receptor = molecular target: T2, CCKB receptor (Mus musculus, UniProt P56481); assay: CCKB receptor radioligand binding assay in mouse cortical membranes ([125I]-CCK8S); conditions: [125I]-CCK8S 200 pM, 150 min at 21±3°; for Ki: read-out: CCKB pKi (converted)
T2 construct: The cortex was dissected, weighed and homogenised in 40ml ice-cold buffer; tissue Charles River (supplier of the CD1 mice); host or cells: cerebral cortex membranes of male CD1 mice
T2 sequence (P56481 1-453): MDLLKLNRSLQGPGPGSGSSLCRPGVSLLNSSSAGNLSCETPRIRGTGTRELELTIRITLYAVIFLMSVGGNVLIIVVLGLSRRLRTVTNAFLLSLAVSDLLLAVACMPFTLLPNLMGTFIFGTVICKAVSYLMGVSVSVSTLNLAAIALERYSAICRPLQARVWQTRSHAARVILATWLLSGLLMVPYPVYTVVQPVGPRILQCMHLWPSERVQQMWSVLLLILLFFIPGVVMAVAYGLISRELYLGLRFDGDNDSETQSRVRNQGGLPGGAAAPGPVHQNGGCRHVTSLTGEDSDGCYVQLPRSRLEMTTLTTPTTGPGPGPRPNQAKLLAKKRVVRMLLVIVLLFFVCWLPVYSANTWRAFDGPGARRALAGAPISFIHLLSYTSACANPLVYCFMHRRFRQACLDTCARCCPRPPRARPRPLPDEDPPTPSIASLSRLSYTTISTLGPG
Outline: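 This was competition binding with tracer [125I]-CCK8S (200 pM solution added), run for 150 min at 21±3° on male CD1 mouse cortex membranes in pH 7.2 HEPES buffer with bacitracin. Filtration then gamma counting gave bound radioactivity. L-365,260 set the non-specific level.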

gastrin = molecular target: T3, gastrin (Rattus norvegicus, UniProt P30553); assay: gastrin antagonist activity in an immature rat stomach assay (pentagastrin-stimulated acid secretion); conditions: cumulative pentagastrin dose-response curves after 60 min with drug; for Kb: read-out: Gastrin pKB (converted)
T3 construct: The stomach was lowered into a jacketed organ bath containing 40 ml of buffered solution; from tissue; host or cells: isolated perfused whole stomach of immature rats (ca. 21 days old)
T3 sequence (P30553 1-452): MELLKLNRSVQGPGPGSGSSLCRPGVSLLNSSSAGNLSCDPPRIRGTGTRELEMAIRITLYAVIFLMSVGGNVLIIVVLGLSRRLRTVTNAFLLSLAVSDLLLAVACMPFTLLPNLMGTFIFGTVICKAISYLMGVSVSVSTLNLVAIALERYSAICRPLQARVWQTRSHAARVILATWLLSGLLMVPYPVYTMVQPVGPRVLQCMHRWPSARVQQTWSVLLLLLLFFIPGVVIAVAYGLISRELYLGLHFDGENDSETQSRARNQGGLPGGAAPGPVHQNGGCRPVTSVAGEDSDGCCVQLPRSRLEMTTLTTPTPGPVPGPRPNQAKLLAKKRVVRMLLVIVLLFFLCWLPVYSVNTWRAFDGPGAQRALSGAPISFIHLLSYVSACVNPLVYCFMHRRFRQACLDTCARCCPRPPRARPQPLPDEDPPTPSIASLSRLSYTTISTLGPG
Outline: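 Isolated lumen-perfused immature rat stomach (33-50 g, ca. 21 days) in 37° organ bath with 3×10^-8 M 5-methylfurmethide; acid secretion read by pH electrode in perfusate. Compound added to serosal bath after 120 min stabilisation; cumulative pentagastrin dose-response curves begun 60 min later and analysed by the Black et al. method.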

Compound: CN(O)C(=O)c1cc(NC(=O)[C@H](Cc2ccccc2)NC(=O)c2cc3cc[nH]c3cc2C(=O)NCC23CC4CC(CC(C4)C2)C3)cc(C(=O)N(C)O)c1 [Example 103, 5-(1S-(3,5-dihydroxy-N-(methyl)aminocarbonylphenylaminocarbonyl)-2-phenylethylaminocarbonyl)-6-(1-adamantanemethylaminocarbonyl)-indole]
CCKA pKi (CCKA): 5.2 | CCKB pKi (CCKB receptor): 7.0 | Gastrin pKB (gastrin): 7.8

Compound: O=C(NCC12CC3CC(CC(C3)C1)C2)c1cc2[nH]ccc2cc1C(=O)N[C@@H](Cc1ccccc1)C(=O)Nc1cc(-c2nn[nH]n2)cc(-c2nn[nH]n2)c1 [Example 104, 5-(1S-(3,5-ditetrazolylphenylaminocarbonyl)-2-phenylethylaminocarbonyl)-6-(1-adamantanemethylaminocarbonyl)-indole]
Ki (CCKA): 316 nM | Ki (CCKB receptor): 1.26 nM | Kb (gastrin): 2.51 nM

Compound: O=C(NCC12CC3CC(CC(C3)C1)C2)c1cc2cc[nH]c2cc1C(=O)N[C@@H](Cc1ccccc1)C(=O)Nc1cc(-c2nn[nH]n2)cc(-c2nn[nH]n2)c1 [Example 105, 6-(1S-(3,5-ditetrazolylphenylaminocarbonyl)-2-phenylethylaminocarbonyl)-5-(1-adamantanemethylaminocarbonyl)-indole]
Ki (CCKA): 158 nM | Ki (CCKB receptor): 5.01 nM | Kb (gastrin): 3.16 nM

Compound: O=C(O)c1cc(NC(=O)[C@H](Cc2ccccc2)NC(=O)c2cc3cc[nH]c3cc2C(=O)NCC2CN3CCC2CC3)cc(C(=O)O)c1 (stereo partly drawn) [Example 108, 5-(1S-(3,5-dicarboxyphenylaminocarbonyl)-2-phenylethylaminocarbonyl)-6-(1-azabicyclo[2.2.2]oct-3-ylmethylaminocarbonyl)-indole]
Ki (CCKA): > 10000 nM | Ki (CCKB receptor): 1260 nM | Kb (gastrin): 794 nM

Compound: O=C(NCC12CC3CC(CC(C3)C1)C2)c1cc2nc[nH]c2cc1C(=O)N[C@@H](Cc1ccccc1)C(=O)Nc1cc(C=NO)cc(C=NO)c1 [Example 118, 5-(1S-(3,5-dihydroxyiminomethylenephenylaminocarbonyl)-2-phenylethylaminocarbonyl)-6-(1-adamantanemethylaminocarbonyl)-benzimidazole]
Ki (CCKA): 501 nM | Ki (CCKB receptor): 200 nM | Kb (gastrin): 200 nM

Compound: COC(=O)c1cc(NC(=O)[C@H](Cc2ccccc2)NC(=O)c2cc3ccoc3cc2C(=O)NCC23CC4CC(CC(C4)C2)C3)cc(C(=O)OC)c1 [Example 124, 5-(1S-(3,5-dimethoxycarbonylphenylaminocarbonyl)-2-phenylethylaminocarbonyl)-6-(1-adamantanemethylaminocarbonyl)-benzofuran]
CCKA pKi (CCKA): 5.7 | CCKB pKi (CCKB receptor): 6.5 | Gastrin pKB (gastrin): 6.8

Compound: O=C(O)c1cc(NC(=O)[C@H](Cc2ccccc2)NC(=O)c2cc3ccsc3cc2C(=O)NCC23CC4CC(CC(C4)C2)C3)cc(C(=O)O)c1 [Example 125, 5-(1S-(3,5-dicarboxyphenylaminocarbonyl)-2-phenylethylaminocarbonyl)-6-(1-adamantanemethylaminocarbonyl)-benzothiophene]
CCKA pKi (CCKA): 5.7 | CCKB pKi (CCKB receptor): 8.9 | Gastrin pKB (gastrin): 9.4

Compound: O=C(NCC12CC3CC(CC(C3)C1)C2)c1cc2nc[nH]c2cc1C(=O)N[C@@H](Cc1ccccc1)C(=O)Nc1cccc(S(=O)(=O)NC(=O)C(F)(F)F)c1 [Example 128, 5-(1S-(3-trifluoroacetylaminosulphonylphenylaminocarbonyl)-2-phenylethylaminocarbonyl)-6-(1-adamantanemethylaminocarbonyl)-benzimidazole]
Ki (CCKA): 2000 nM | Ki (CCKB receptor): 6.31 nM | Kb (gastrin): 2.51 nM

Results, then the molecule that gave them:

CCKA pKi (CCKA): < 5.0 | CCKB pKi (CCKB receptor): 8.1 | Gastrin pKB (gastrin): 8.2
Compound: O=C(O)c1cc(NC(=O)[C@H](Cc2ccccc2)NC(=O)c2ccc3[nH]cnc3c2C(=O)NCC23CC4CC(CC(C4)C2)C3)cc(C(=O)O)c1 [Example 112, 5-(1S-(3,5-dicarboxyphenylaminocarbonyl)-2-phenylethylaminocarbonyl)-4-(1-adamantanemethylaminocarbonyl)-benzimidazole]

CCKA pKi (CCKA): 5.2 | CCKB pKi (CCKB receptor): 6.9 | Gastrin pKB (gastrin): 7.2
Compound: O=C(O)c1cc(NC(=O)[C@H](Cc2ccccc2)NC(=O)c2c(C(=O)NCC34CC5CC(CC(C5)C3)C4)ccc3[nH]cnc23)cc(C(=O)O)c1 [Example 113, 4-(1S-(3,5-dicarboxyphenylaminocarbonyl)-2-phenylethylaminocarbonyl)-5-(1-adamantanemethylaminocarbonyl)-benzimidazole]

CCKA pKi (CCKA): 5.6 | CCKB pKi (CCKB receptor): 7.6 | Gastrin pKB (gastrin): 8.2
Compound: Nc1cccc2cc(C(=O)N[C@@H](Cc3ccccc3)C(=O)Nc3cc(C(=O)O)cc(C(=O)O)c3)c(C(=O)NCC34CC5CC(CC(C5)C3)C4)cc12 [Example 115, 2-(1S-(3,5-dicarboxyphenylaminocarbonyl)-2-phenylethylaminocarbonyl)-3-(1-adamantanemethylaminocarbonyl)-5-aminonaphthalene]

Ki (CCKA): 1260 nM | Ki (CCKB receptor): 25.1 nM | Kb (gastrin): 31.6 nM
Compound: O=C(O)c1ccc(Cl)c(NC(=O)[C@H](Cc2ccccc2)NC(=O)c2cc3[nH]cnc3cc2C(=O)NCC23CC4CC(CC(C4)C2)C3)c1 [Example 127, 5-(1S-(^2-chloro-5-carboxyphenylaminocarbonyl)-2-phenylethylaminocarbonyl)-6-(1-adamantanemethylaminocarbonyl)-benzimidazole]

Ki (CCKA): 5010 nM | Ki (CCKB receptor): 3.98 nM | Kb (gastrin): 0.2 nM
Compound: O=C(O)c1cc(NC(=O)[C@H](Cc2cccc(F)c2)NC(=O)c2cc3[nH]cnc3cc2C(=O)NCC23CC4CC(CC(C4)C2)C3)cc(C(=O)O)c1 [Example 131, 5-(1S-(3,5-dicarboxyphenylaminocarbonyl)-2-(3-fluorophenyl)ethylaminocarbonyl)-6-(1-adamantanemethylaminocarbonyl)-benzimidazole]

Ki (CCKA): 3980 nM | Ki (CCKB receptor): 3.98 nM | Kb (gastrin): 1 nM
Compound: O=C(O)c1cc(NC(=O)[C@H](Cc2ccc(F)cc2)NC(=O)c2cc3[nH]cnc3cc2C(=O)NCC23CC4CC(CC(C4)C2)C3)cc(C(=O)O)c1 [Example 132, 5-(1S-(3,5-dicarboxyphenylaminocarbonyl)-2-(4-fluorophenyl)ethylaminocarbonyl)-6-(1-adamantanemethylaminocarbonyl)-benzimidazole]

Ki (CCKA): 794 nM | Ki (CCKB receptor): 25.1 nM | Kb (gastrin): 1.58 nM
Compound: O=C(O)c1cc(NC(=O)[C@H](Cc2ccc(I)cc2)NC(=O)c2cc3[nH]cnc3cc2C(=O)NCC23CC4CC(CC(C4)C2)C3)cc(C(=O)O)c1 [Example 134, 5-(1S-(3,5-dicarboxyphenylaminocarbonyl)-2-(4-iodophenyl)ethylaminocarbonyl)-6-(1-adamantanemethylaminocarbonyl)-benzimidazole]
